# Assay results published in article PMC2782674 (Biochemistry, 2009).
# “Also recorded” adds a separate entry of the source. Where two headings read alike, the source gives them in different places. Square brackets hold non-standard residues; d marks the D form. Peptide text beside a SMILES is read from it. Orn(N5-OH,N5-Ac) = CC(=O)N(O)CCC[C@H](N)C(=O)O
# Assays:
# B. cereus ATCC 14579 [1] = format: cell-based, Bacillus cereus
# B. cereus ATCC 14579 [2] = format: cell-based, Bacillus cereus; remark: listed apart in the source
# FpuA (Bc_4528) [3] = target: T1, FpuA (Bc_4528) (Bacillus cereus, UniProt Q817L3); format: binding, B. cereus ATCC 14579
# T1 sequence (Q817L3 19-324): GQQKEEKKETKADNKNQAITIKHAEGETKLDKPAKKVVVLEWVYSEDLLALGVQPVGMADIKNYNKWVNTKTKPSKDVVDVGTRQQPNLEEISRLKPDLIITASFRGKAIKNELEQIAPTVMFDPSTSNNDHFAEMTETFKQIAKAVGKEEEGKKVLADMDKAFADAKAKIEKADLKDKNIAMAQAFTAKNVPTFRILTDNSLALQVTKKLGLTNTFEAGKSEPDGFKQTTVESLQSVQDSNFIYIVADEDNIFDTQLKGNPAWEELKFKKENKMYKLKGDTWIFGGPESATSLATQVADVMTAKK
# FpuA (Bc_4528) [4] = target: T1, FpuA (Bc_4528); conditions: pH 6.8
# FeuA (Bc_3738) = target: T2, FeuA (Bc_3738) (Bacillus cereus, UniProt Q81A53); assay: biochemical; format: binding, B. cereus ATCC 14579
# T2 sequence (Q81A53 22-321): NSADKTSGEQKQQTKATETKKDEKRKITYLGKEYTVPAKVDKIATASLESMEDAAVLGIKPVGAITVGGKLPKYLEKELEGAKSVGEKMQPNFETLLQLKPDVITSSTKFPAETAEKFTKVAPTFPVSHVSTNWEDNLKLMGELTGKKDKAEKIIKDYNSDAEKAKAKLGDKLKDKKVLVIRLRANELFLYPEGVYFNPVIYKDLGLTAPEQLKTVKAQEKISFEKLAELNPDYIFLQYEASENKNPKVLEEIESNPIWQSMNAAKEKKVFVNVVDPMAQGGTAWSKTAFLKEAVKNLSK
# FatB (Bc_5106) [5] = target: T3, FatB (Bc_5106) (Bacillus cereus, UniProt Q815N5); format: binding, B. cereus ATCC 14579
# T3 sequence (Q815N5 24-338): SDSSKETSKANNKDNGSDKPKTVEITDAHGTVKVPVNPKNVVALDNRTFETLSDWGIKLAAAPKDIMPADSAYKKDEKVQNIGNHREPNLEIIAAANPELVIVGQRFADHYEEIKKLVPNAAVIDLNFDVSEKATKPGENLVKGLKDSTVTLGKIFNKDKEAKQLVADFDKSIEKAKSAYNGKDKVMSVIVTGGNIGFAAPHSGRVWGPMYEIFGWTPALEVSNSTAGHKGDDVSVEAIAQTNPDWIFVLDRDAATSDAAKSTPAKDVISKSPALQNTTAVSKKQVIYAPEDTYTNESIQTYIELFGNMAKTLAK
# YxeB (Bc_0383) = target: T4, YxeB (Bc_0383) (Bacillus cereus, UniProt Q81IK3); format: binding, B. cereus ATCC 14579; conditions: for Kd: pH 7
# T4 sequence (Q81IK3 20-306): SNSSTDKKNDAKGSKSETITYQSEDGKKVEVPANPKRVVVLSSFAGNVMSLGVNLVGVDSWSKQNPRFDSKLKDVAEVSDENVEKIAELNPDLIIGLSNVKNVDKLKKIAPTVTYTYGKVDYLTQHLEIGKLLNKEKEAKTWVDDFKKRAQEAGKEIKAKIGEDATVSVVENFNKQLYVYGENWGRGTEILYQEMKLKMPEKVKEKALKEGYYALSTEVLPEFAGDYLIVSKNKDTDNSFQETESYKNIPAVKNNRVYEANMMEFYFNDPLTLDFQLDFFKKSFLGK
# FatB (Bc_5106) [6] = target: T3, FatB (Bc_5106); conditions: pH 6.8
compound,measurement,setting,value
"O=C(O)c1ccc(O)c(O)c1 [3,4-DHB, 3,4-dihydroxybenzoic acid]",Km,B. cereus ATCC 14579 [1],0.4 ± 0.1 µM
same,vmax,B. cereus ATCC 14579 [1],2.3 ± 0.1 pmol Fe mL^-1 min^-1
same,effect on uptake of radioactive ferric PB,B. cereus ATCC 14579 [2],inhibited
same,effect on uptake of radioactive ferric PB^ν,B. cereus ATCC 14579 [2],inhibited
same,ligand recognition by FpuA,FpuA (Bc_4528) [3],not specifically quenched
same,noncovalent complex with FpuA by ESI-MS (Molecular weight Measured),FpuA (Bc_4528) [4],not observed
"C[C@H]1OC(=O)[C@@H](NC(=O)CNC(=O)c2cccc(O)c2O)[C@@H](C)OC(=O)[C@@H](NC(=O)CNC(=O)c2cccc(O)c2O)[C@@H](C)OC(=O)[C@H]1NC(=O)CNC(=O)c1cccc(O)c1O [BB, bacillibactin]",Kd,FeuA (Bc_3738); pH 7,59 nM
same,ligand recognition by FatB,FatB (Bc_5106) [5],binding incompatibility; also recorded: no affinity
"CC(=O)N(O)CCCCCNC(=O)CCC(=O)N(O)CCCCCNC(=O)CCC(=O)N(O)CCCCCN [DFO, desferrioxamine B]",change of YxeB fluorescence on binding,YxeB (Bc_0383),increase of SBP fluorescence
"O=C(N[C@H]1COC(=O)[C@@H](NC(=O)c2cccc(O)c2O)COC(=O)[C@@H](NC(=O)c2cccc(O)c2O)COC1=O)c1cccc(O)c1O [Ent, enterobactin]",Kd,FeuA (Bc_3738),36 nM
"CC(=O)N([O-])CCC[C@@H]1NC(=O)CNC(=O)CNC(=O)CNC(=O)[C@H](CCCN([O-])C(C)=O)NC(=O)[C@H](CCCN([O-])C(C)=O)NC1=O.[Fe+3] [Fch, ferrichrome] (cyclo(GGG[Orn(N5-OH,N5-Ac)][Orn(N5-OH,N5-Ac)][Orn(N5-OH,N5-Ac)]))",binding of the aposiderophore to FpuA,FpuA (Bc_4528) [3],did not bind
same,unspecific protein emission quenching of FpuA,FpuA (Bc_4528) [3],10-20%
same,change of YxeB fluorescence on binding,YxeB (Bc_0383),increase of SBP fluorescence
same,noncovalent complex with FpuA by ESI-MS (Molecular weight Measured),FpuA (Bc_4528) [4],no protein-ligand complexes were detected
CC(=O)N(O)CCCCCNC(=O)CCC(=O)N(O)CCCCCNC(=O)CCC(=O)N(O)CCCCCN.[Fe+3] [FeDFO],effect on transport of ^55FeFch,B. cereus ATCC 14579 [2],inhibited
same,Kd,YxeB (Bc_0383),18 nM
"CC(=O)N(O)CCC[C@@H]1NC(=O)CNC(=O)CNC(=O)CNC(=O)[C@H](CCCN(O)C(C)=O)NC(=O)[C@H](CCCN(O)C(C)=O)NC1=O.[Fe+3] [FeFch] (cyclo(GGG[Orn(N5-OH,N5-Ac)][Orn(N5-OH,N5-Ac)][Orn(N5-OH,N5-Ac)]))",effect on uptake of ^55FeDFO,B. cereus ATCC 14579 [2],inhibited
same,Kd,YxeB (Bc_0383),30 nM
"O=C(CC(O)(CC(=O)NCCCCNCCCNC(=O)c1ccc(O)c(O)c1)C(=O)O)NCCCCNCCCNC(=O)c1ccc(O)c(O)c1 [PB, petrobactin]",effect on incorporation of radioactive ferric Ent,B. cereus ATCC 14579 [2],only slightly affected
same,"effect on uptake of radioactive ferric 3,4-DHB",B. cereus ATCC 14579 [2],inhibited
same,effect on uptake of radioactive ferric PB,B. cereus ATCC 14579 [2],inhibited
same,effect on uptake of radioactive ferric PB^ν,B. cereus ATCC 14579 [2],inhibited
same,Kd,FpuA (Bc_4528) [3]; pH 7,23 nM
same,noncovalent complex with FatB by ESI-MS (Molecular weight Measured),FatB (Bc_5106) [6],not observed
same,noncovalent complex with FpuA by ESI-MS (Molecular weight Measured),FpuA (Bc_4528) [4],not observed
"CC(=O)N(O)CCCNC(=O)CC(O)(CC(=O)NCCCN(O)C(C)=O)C(=O)O [Sch, schizokinen]",ligand recognition by FpuA,FpuA (Bc_4528) [3],binding incompatibility
FeEnt,Kd,FeuA (Bc_3738); pH 7,12 nM
ferric citrate,ligand recognition by FatB,FatB (Bc_5106) [5],no recognition
same,ligand recognition by FpuA,FpuA (Bc_4528) [3],no recognition
same,noncovalent complex with FatB by ESI-MS (Molecular weight Measured),FatB (Bc_5106) [6],no protein-ligand complexes were detected
same,noncovalent complex with FpuA by ESI-MS (Molecular weight Measured),FpuA (Bc_4528) [4],no protein-ligand complexes were detected
